Where “and” joins values, the source holds several entries; their conditions need not be identical. Equal entries are not always repeated.
Test: xn = mol fraction of the nth substance listed

Cc1cccc(C)c1 + c1ccccc1
viscosity [mPa·s], 101 kPa
Conditions | x1 = 0.0977 | x1 = 0.2098 | x1 = 0.2979 | x1 = 0.4028 | x1 = 0.5018 | x1 = 0.5981 | x1 = 0.7046 | x1 = 0.8007 | x1 = 0.898
303 K | 0.5478 | 0.5424 | 0.5393 | 0.5373 | 0.5342 | 0.5374 | 0.536 | 0.5395 | 0.5417
313 K | 0.4793 | 0.4781 | 0.4769 | 0.4767 | 0.4789 | 0.4796 | 0.4818 | 0.4843 | 0.4875
323 K | 0.4302 | 0.4308 | 0.4285 | 0.4291 | 0.4307 | 0.4342 | 0.4361 | 0.4397 | 0.443

O=S1(=O)CCCC1 + NCCO
viscosity [mPa·s], 101 kPa
Conditions | x2 = 0.1 | x2 = 0.3369 | x2 = 0.5426 | x2 = 0.7423 | x2 = 0.8999
303.15 K | 14.02 | 11.47 | 9.923 | 9.547 | 9.78
323.15 K | 7.103 | 6.2 | 5.815 | 5.85 | 6.195

Cc1cccc(C)c1 + CCCCCCCCCCCC
323.15 K, 100 kPa
Conditions | viscosity
x1 = 0.453 | 0.682 mPa·s and 0.683 mPa·s
x1 = 0.757 | 0.538 mPa·s and 0.539 mPa·s

Cc1cccc(C)c1 + C1CCCCC1
101 kPa
Conditions | viscosity [mPa·s]
303 K, x1 = 0.1017 | 0.7217
303 K, x1 = 0.2009 | 0.6601
303 K, x1 = 0.3085 | 0.6191
303 K, x1 = 0.4005 | 0.5943
303 K, x1 = 0.503 | 0.5759
303 K, x1 = 0.5848 | 0.5648
303 K, x1 = 0.7009 | 0.552
303 K, x1 = 0.8041 | 0.5484
303 K, x1 = 0.9025 | 0.5445
308.15 K, x2 = 0.0628 | 0.516
308.15 K, x2 = 0.1619 | 0.5217
308.15 K, x2 = 0.2398 | 0.522
308.15 K, x2 = 0.3421 | 0.5304
308.15 K, x2 = 0.4497 | 0.5417
308.15 K, x2 = 0.5501 | 0.5626
308.15 K, x2 = 0.6692 | 0.587
308.15 K, x2 = 0.7673 | 0.6144
308.15 K, x2 = 0.8649 | 0.6595
308.15 K, x2 = 0.9489 | 0.7148
313 K, x1 = 0.1017 | 0.6251
313 K, x1 = 0.2009 | 0.5799
313 K, x1 = 0.3085 | 0.548
313 K, x1 = 0.4005 | 0.5296
313 K, x1 = 0.503 | 0.5178
313 K, x1 = 0.5848 | 0.508
313 K, x1 = 0.7009 | 0.5009
313 K, x1 = 0.8041 | 0.493
313 K, x1 = 0.9025 | 0.492
313.15 K, x2 = 0.0628 | 0.4892
313.15 K, x2 = 0.1619 | 0.4949
313.15 K, x2 = 0.2398 | 0.4963
313.15 K, x2 = 0.3421 | 0.5022
313.15 K, x2 = 0.4497 | 0.5152
313.15 K, x2 = 0.5501 | 0.5304
313.15 K, x2 = 0.6692 | 0.5548
313.15 K, x2 = 0.7673 | 0.5837
313.15 K, x2 = 0.8649 | 0.6213
313.15 K, x2 = 0.9489 | 0.6685
323 K, x1 = 0.1017 | 0.5481
323 K, x1 = 0.2009 | 0.5125
323 K, x1 = 0.3085 | 0.4884
323 K, x1 = 0.4005 | 0.4736
323 K, x1 = 0.503 | 0.4625
323 K, x1 = 0.5848 | 0.4562
323 K, x1 = 0.7009 | 0.45
323 K, x1 = 0.8041 | 0.4466
323 K, x1 = 0.9025 | 0.4461

O=S(=O)(Cl)Cl + Cc1ccccc1
298.15 K, 101 kPa
Conditions | viscosity [mPa·s]
x1 = 0.207 | 0.5841
x1 = 0.373 | 0.6144
x1 = 0.572 | 0.6457
x1 = 0.713 | 0.6642
x1 = 0.826 | 0.6759

Cc1ccc(O)cc1 + CCCC(=O)O
viscosity [mPa·s], 101 kPa
Conditions | x2 = 0.1119 | x2 = 0.2208 | x2 = 0.327 | x2 = 0.4305 | x2 = 0.5313 | x2 = 0.6297 | x2 = 0.7257 | x2 = 0.8193 | x2 = 0.9107
298.15 K | 11.14 | 8.918 | 7.131 | 5.694 | 4.541 | 3.617 | 2.884 | 2.319 | 1.88
308.15 K | 6.522 | 5.57 | 4.738 | 4.049 | 3.417 | 2.851 | 2.364 | 1.922 | 1.517
318.15 K | 5.117 | 4.435 | 3.835 | 3.299 | 2.808 | 2.362 | 1.987 | 1.643 | 1.256

O=S1(=O)CCCC1 + COCCO
303.15 K, 101 kPa
Conditions | viscosity [mPa·s]
x1 = 0.0483 | 1.2
x1 = 0.0994 | 1.054
x1 = 0.1962 | 1.489
x1 = 0.2953 | 2.053
x1 = 0.3486 | 2.251
x1 = 0.4007 | 2.703
x1 = 0.4569 | 3.258
x1 = 0.4997 | 3.863
x1 = 0.5991 | 4.997
x1 = 0.7126 | 6.301
x1 = 0.7971 | 7.413
x1 = 0.8496 | 8.345
x1 = 0.8986 | 9.013

CCC(C)O (stereo unspecified) + CCCCO
Conditions | viscosity [mPa·s]
303.15 K, 101 kPa, x2 = 0.8988 | 2.875

CCCCOCCOCCO + CCCO
viscosity [mPa·s], 101 kPa
Conditions | 298.15 K | 308.15 K | 318.15 K
x1 = 0.011 | 1.95 | 1.525 | 1.246
x1 = 0.042 | 2.019 | 1.576 | 1.293
x1 = 0.074 | 2.098 | 1.633 | 1.337
x1 = 0.1191 | 2.202 | 1.711 | 1.409
x1 = 0.1629 | 2.325 | 1.802 | 1.488
x1 = 0.2086 | 2.446 | 1.889 | 1.576
x1 = 0.2587 | 2.587 | 2.024 | 1.669
x1 = 0.3152 | 2.748 | 2.149 | 1.767
x1 = 0.3289 | 2.787 | 2.179 | 1.795
x1 = 0.3796 | 2.959 | 2.283 | 1.89
x1 = 0.4568 | 3.213 | 2.435 | 2.034
x1 = 0.5093 | 3.371 | 2.548 | 2.123
x1 = 0.5833 | 3.615 | 2.714 | 2.263
x1 = 0.6316 | 3.764 | 2.814 | 2.346
x1 = 0.6882 | 3.928 | 2.932 | 2.442
x1 = 0.7604 | 4.153 | 3.085 | 2.564
x1 = 0.8285 | 4.361 | 3.228 | 2.677
x1 = 0.9045 | 4.598 | 3.388 | 2.797
x1 = 0.9511 | 4.734 | 3.481 | 2.875

O=S1(=O)CCCC1 + CCCCO
viscosity [mPa·s], 101 kPa
Conditions | x1 = 0.1066 | x1 = 0.191 | x1 = 0.2871 | x1 = 0.3889 | x1 = 0.4851 | x1 = 0.5891 | x1 = 0.6937 | x1 = 0.7935 | x1 = 0.9023
303.15 K | 2.084 | 2.148 | 2.32 | 2.582 | 2.914 | 3.395 | 4.117 | 5.218 | 7.192
308.15 K | 1.855 | 1.912 | 2.06 | 2.291 | 2.59 | 3.028 | 3.676 | 4.65 | 6.369
313.15 K | 1.659 | 1.711 | 1.842 | 2.048 | 2.316 | 2.715 | 3.3 | 4.167 | 5.669

— the CheMixHub viscosity set
